From patent US20160183577A1, “Transglucosylated Rubus suavissimus Extract and Methods of Preparation and Use” (INTERNATIONAL FLAVORS & FRAGRANCES INC., priority 2014, published 2016)

Test: Sensory evaluation of sweetness and mouthfeel of solutions in sucrose base solution (Example II)
Format: in vivo
Settings: in sucrose base solution (4% in water), sucrose 1.5%, Reb-A 30 ppm, sucralose 20 ppm, rubusoside 45 ppm, Preparations at total rubusoside 45 ppm; for Mouthfeel: averaged score of 0 to 10 (0=none, 1=barely detectable, 2=weak, 4=weak-moderate, 6=moderate, 8=moderate-strong, 10=extremely strong); for Sweetness: averaged score of 0 to 10 (0=none, 10=extremely strong)
Protocol: Isosweet solutions of sucrose (1.5%), rebaudioside A (“Reb-A”) (30 ppm), sucralose (20 ppm) and rubusoside (45 ppm) were prepared in a sucrose base solution (4% in water). Additional solutions of the transglucosylated R. suavissimus extract prepared with different rubusoside transglucosylation rates including Preparation I, II and III (prepared as above in EXAMPLE I) were also prepared, wherein the total rubusoside concentrations were equalized to 45 ppm.
Sweetness and mouthfeel of the obtained solutions were evaluated using a score of 0 to 10, where 0=none, 1=barely detectable, 2=weak, 4=weak-moderate, 6=moderate, 8=moderate-strong and 10=extremely strong.

Work on `C=C1C[C@@]23CC[C@H]4[C@@](C)(CCC[C@@]4(C)C(=O)O[C@@H]4O[C@H](CO)[C@@H](O)[C@H](O)[C@H]4O)[C@@H]2CC[C@]1(O[C@@H]1O[C@H](CO)[C@@H](O)[C@H](O)[C@H]1O)C3` [Rubusoside, rubusoside] yielded a Mouthfeel of 4 and a Sweetness of 5.

With `OC[C@H]1O[C@H](O[C@]2(CCl)O[C@H](CCl)[C@@H](O)[C@@H]2O)[C@H](O)[C@@H](O)[C@H]1Cl` [Sucralose, sucralose] the Mouthfeel was 3 and the Sweetness was 5.

In the case of `C=C1C[C@@]23CC[C@H]4[C@@](C)(CCC[C@@]4(C)C(=O)O[C@@H]4O[C@H](CO)[C@@H](O)[C@H](O)[C@H]4O)[C@@H]2CC[C@]1(O[C@@H]1O[C@H](CO)[C@@H](O)[C@H](O[C@@H]2O[C@H](CO)[C@@H](O)[C@H](O)[C@H]2O)[C@H]1O[C@@H]1O[C@H](CO)[C@@H](O)[C@H](O)[C@H]1O)C3` [Reb-A, rebaudioside A], the Mouthfeel is reported as 3 and the Sweetness is reported as 5.

Work on `OC[C@H]1O[C@@](CO)(O[C@H]2O[C@H](CO)[C@@H](O)[C@H](O)[C@H]2O)[C@@H](O)[C@@H]1O` [Sucrose, sucrose] yielded a Mouthfeel of 7 and a Sweetness of 5.
